Source: BindingDB's records for doi:10.1021/jm00128a027 (Rorer Central Research, 1989)

Molecular target: Polyunsaturated fatty acid 5-lipoxygenase (Cavia porcellus)
Test: In vitro inhibition of polymorphonuclear leukocyte derived guinea pig 5-lipoxygenase

| Structure (SMILES) | IC50 [nM] |
| --- | --- |
| O=C(CCCc1ccccc1)N(O)CCc1ccccc1 | 130 |
| O=C(c1ccc(OCc2ccccc2)cc1)N(O)CCc1ccccc1 | 50 |
